{"source": "patent US9375436B2", "about": "“Androgen treatment in females” (priority 2004, dated 2016)", "origin": "cited, not measured here", "system": "older mice", "conditions": "cited from earlier work", "data": [{"smiles": "COC1=C(OC)C(=O)C(C/C=C(\\C)CC/C=C(\\C)CC/C=C(\\C)CC/C=C(\\C)CC/C=C(\\C)CC/C=C(\\C)CC/C=C(\\C)CC/C=C(\\C)CC/C=C(\\C)CCC=C(C)C)=C(C)C1=O", "note": "[CoQ10, coenzyme Q10]", "values": [{"measurement": "oocytes numbers", "value": "increases oocytes numbers"}]}]}
